In brackets after ≈: the same amount, converted by molar mass.
How the values were obtained:
NCI-H292 [1] = test: Cytotoxicity against human NCI-H292 cells assessed as reduction in cell viability incubated for 4 days by WST-1 assay; assay type: functional, cell-based; conditions: NCI-H292, 96 h
[2] = Induction of apoptosis in rat Glial cell transformed with adenovirus 12 E1A incubated for 24 hrs by /Hoechst […] staining based flourescence microscopy; assay type: functional
[3] = Growth inhibition of human BSY1 cells by sulforhodamine B assay; assay type: functional; conditions: BSY-1
SNB-78 = test: Growth inhibition of human SNB-78 cells by sulforhodamine B assay; assay type: functional
SF-539 = test: Growth inhibition of human SF-539 cells by sulforhodamine B assay; assay type: functional
St-4 = test: Growth inhibition of human St-4 cells by sulforhodamine B assay; assay type: functional
DMS-273 = test: Growth inhibition of human DMS-273 cells by sulforhodamine B assay; assay type: functional
OVCAR-3 = test: Growth inhibition of human OVCAR-3 cells by sulforhodamine B assay; assay type: functional
SK-OV-3 = test: Growth inhibition of human SK-OV-3 cells by sulforhodamine B assay; assay type: functional
OVCAR-5 = test: Growth inhibition of human OVCAR-5 cells by sulforhodamine B assay; assay type: functional
DU-145 = test: Growth inhibition of human DU-145 cells by sulforhodamine B assay; assay type: functional
MKN-7 = test: Growth inhibition of human MKN-7 cells by sulforhodamine B assay; assay type: functional
SNB-75 = test: Growth inhibition of human SNB-75 cells by sulforhodamine B assay; assay type: functional
MCF7 [4] = test: Growth inhibition of human MCF7 cells by sulforhodamine B assay; assay type: functional
HeLa S3 = test: Cytotoxicity against human HeLa S3 cells assessed as cell growth inhibition; assay type: functional, cell-based
ACHN = test: Growth inhibition of human ACHN cells by sulforhodamine B assay; assay type: functional
PC-3 = test: Growth inhibition of human PC-3 cells by sulforhodamine B assay; assay type: functional
MKN-1 = test: Growth inhibition of human MKN-1 cells by sulforhodamine B assay; assay type: functional
HCT-15 = test: Growth inhibition of human HCT-15 cells by sulforhodamine B assay; assay type: functional
U-251 = test: Growth inhibition of human U-251 cells by sulforhodamine B assay; assay type: functional
NCI-H460 = test: Growth inhibition of human NCI-H460 cells by sulforhodamine B assay; assay type: functional
[5] = Growth inhibition of human HBC4 cells by sulforhodamine B assay; assay type: functional
HCT-116 = test: Growth inhibition of human HCT-116 cells by sulforhodamine B assay; assay type: functional
SF-295 = test: Growth inhibition of human SF-295 cells by sulforhodamine B assay; assay type: functional
NCI-H23 = test: Growth inhibition of human NCI-H23 cells by sulforhodamine B assay; assay type: functional
[6] = Growth inhibition of human […] cells by sulforhodamine B assay; assay type: functional
OVCAR-4 = test: Growth inhibition of human OVCAR-4 cells by sulforhodamine B assay; assay type: functional
HCC 2998 = test: Growth inhibition of human HCC 2998 cells by sulforhodamine B assay; assay type: functional
HT-29 = test: Growth inhibition of human HT-29 cells by sulforhodamine B assay; assay type: functional
NCI-H226 = test: Growth inhibition of human NCI-H226 cells by sulforhodamine B assay; assay type: functional
MKN-28 = test: Growth inhibition of human MKN-28 cells by sulforhodamine B assay; assay type: functional
[7] = Growth inhibition of human HBC5 cells by sulforhodamine B assay; assay type: functional
NCI-H522 = test: Growth inhibition of human NCI-H522 cells by sulforhodamine B assay; assay type: functional
SF-268 = test: Growth inhibition of human SF-268 cells by sulforhodamine B assay; assay type: functional
MKN-74 = test: Growth inhibition of human MKN-74 cells by sulforhodamine B assay; assay type: functional
OVCAR-8 = test: Growth inhibition of human OVCAR-8 cells by sulforhodamine B assay; assay type: functional
MKN-45 = test: Growth inhibition of human MKN-45 cells by sulforhodamine B assay; assay type: functional
LOX IMVI = test: Growth inhibition of human LOX IMVI cells by sulforhodamine B assay; assay type: functional
[8] = molecular target: Sarcoplasmic/endoplasmic reticulum calcium ATPase 1 (Oryctolagus cuniculus, UniProt P04191); test: Inhibition of SERCA1a in rabbit Sarcoplasmic reticulum assessed as inhibition constant in presence of [gamma-32P]ATP and calcium ionophore A23187 by coupled enzyme assay; assay type: subcellular
RXF 631 = test: Growth inhibition of human RXF 631 cells by sulforhodamine B assay; assay type: functional
KM12 = test: Growth inhibition of human KM12 cells by sulforhodamine B assay; assay type: functional
A549 = test: Growth inhibition of human A549 cells by sulforhodamine B assay; assay type: functional
[9] = Cytotoxicity against mouse WEHI-231 cells assessed as cell growth inhibition incubated for 144 hrs by MTT assay; assay type: functional, cell-based; conditions: WEHI231, 144 h
MCF7 [10] = test: Cytotoxicity against human MCF7 cells assessed as cell growth inhibition incubated for 144 hrs by MTT assay; assay type: functional, cell-based; conditions: MCF7, 144 h
L1210 = test: Cytotoxicity against mouse L1210 cells incubated for 3 days by MTT assay; assay type: functional, cell-based; conditions: L1210, 72 h
Colon 26 = test: Cytotoxicity against mouse Colon 26 cells incubated for 3 days by MTT assay; assay type: functional, cell-based; conditions: Colon 26, 72 h
NCI-H292 [11] = test: Growth inhibition in human NCI-H292 cells incubated for 2 days by calcein-AM/pluronic F127 based fluorescence plate reader; assay type: functional; conditions: NCI-H292, 48 h, time 2 day
HeLa [12] = test: Cytotoxicity against human HeLa cells by MTT assay; assay type: functional, cell-based
K562 = test: Cytotoxicity against human K562 cells by MTT assay; assay type: functional, cell-based
KB = test: Cytotoxicity against human KB cells by MTT assay; assay type: functional, cell-based
Jurkat = test: Cytotoxicity against human Jurkat cells incubated for 18 hrs by MTS assay; assay type: functional
HeLa [13] = test: Cytotoxicity against human HeLa cells assessed as reduction of cell viability incubated for 48 hrs by MTT assay; assay type: functional, cell-based

Chain of Sarcoplasmic/endoplasmic reticulum calcium ATPase 1 (P04191 whole entry): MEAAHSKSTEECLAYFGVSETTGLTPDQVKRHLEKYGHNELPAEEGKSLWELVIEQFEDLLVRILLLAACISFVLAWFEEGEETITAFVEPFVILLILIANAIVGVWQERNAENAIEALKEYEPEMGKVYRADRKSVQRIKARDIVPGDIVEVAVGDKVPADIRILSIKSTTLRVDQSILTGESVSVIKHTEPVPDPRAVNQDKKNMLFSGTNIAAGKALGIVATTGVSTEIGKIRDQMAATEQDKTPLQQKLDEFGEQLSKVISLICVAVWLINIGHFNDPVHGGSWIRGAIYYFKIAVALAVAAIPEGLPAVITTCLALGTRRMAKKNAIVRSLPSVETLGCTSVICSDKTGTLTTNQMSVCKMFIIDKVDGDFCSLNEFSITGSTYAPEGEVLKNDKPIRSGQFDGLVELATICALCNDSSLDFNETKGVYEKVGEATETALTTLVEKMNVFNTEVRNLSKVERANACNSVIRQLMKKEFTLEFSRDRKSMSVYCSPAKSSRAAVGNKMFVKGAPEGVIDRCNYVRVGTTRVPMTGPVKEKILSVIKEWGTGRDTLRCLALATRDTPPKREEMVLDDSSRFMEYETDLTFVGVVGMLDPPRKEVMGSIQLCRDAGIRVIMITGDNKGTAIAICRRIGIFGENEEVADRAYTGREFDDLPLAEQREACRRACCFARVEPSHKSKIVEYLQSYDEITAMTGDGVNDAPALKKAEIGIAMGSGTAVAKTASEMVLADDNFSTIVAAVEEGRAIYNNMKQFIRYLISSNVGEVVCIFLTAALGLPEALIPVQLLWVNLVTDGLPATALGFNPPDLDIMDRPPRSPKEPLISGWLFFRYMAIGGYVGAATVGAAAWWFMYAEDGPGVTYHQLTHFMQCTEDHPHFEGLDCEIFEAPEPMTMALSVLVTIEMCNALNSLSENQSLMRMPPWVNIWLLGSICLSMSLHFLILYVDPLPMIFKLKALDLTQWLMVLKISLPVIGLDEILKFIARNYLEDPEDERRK

For `COC[C@@H](C[C@H]1O[C@@](O)([C@H](O)[C@@H]2C[C@H](OC)[C@@H](O)CC/C=C(C)/C=C/[C@@H](O[C@@H]3O[C@@H](C)[C@H](OC)[C@@H](O)[C@@H]3O)[C@H](C)/C=C(C)/C=C(C)/C=C(\C)C(=O)O2)[C@H](C)[C@@H](O)[C@H]1C)O[C@H]1C[C@](C)(O)[C@@H](O[C@H]2C[C@@H](OC)[C@H](O)[C@@H](C)O2)[C@H](C)O1`, the EC50 (NCI-H292 [1]) was < 50 nM and the IC50 [2] was 0.011 µg/mL (≈ 0.00974 µM).

With `C/C=C/C/C(C)=C\[C@H]1C/C=C/C=C/C[C@H](C)/C=C(\C)[C@@H](OC)C/C=C/[C@@H](O[C@@H]2O[C@H](CO)[C@@H](O)[C@H](OC)[C@H]2O)CC(=O)O1` the GI50 [3] was 600 nM, the GI50 (SNB-78) was 600 nM and the GI50 (SF-539) was 600 nM. For the same molecule, the GI50 (St-4) was 600 nM, the GI50 (DMS-273) was 600 nM and the GI50 (OVCAR-3) was 600 nM. The GI50 (SK-OV-3) was 600 nM, the GI50 (OVCAR-5) was 600 nM and the GI50 (DU-145) was 600 nM. For the same molecule, the GI50 (MKN-7) was 600 nM, the GI50 (SNB-75) was 600 nM and the GI50 (MCF7 [4]) was 600 nM. For the same molecule, the IC50 (HeLa S3) was 0.1 µg/mL (≈ 0.165 µM), the GI50 (ACHN) was 600 nM and the GI50 (PC-3) was 600 nM. The GI50 (MKN-1) was 600 nM, the GI50 (HCT-15) was 600 nM and the GI50 (U-251) was 600 nM. It also gave a GI50 (NCI-H460) of 600 nM, a GI50 [5] of 600 nM and a GI50 (HCT-116) of 600 nM. For the same molecule, the GI50 (SF-295) was 600 nM, the GI50 (NCI-H23) was 600 nM and the GI50 [6] was 600 nM. The GI50 (OVCAR-4) was 600 nM, the GI50 (HCC 2998) was 600 nM and the GI50 (HT-29) was 600 nM. The GI50 (NCI-H226) was 600 nM, the GI50 (MKN-28) was 600 nM and the GI50 [7] was 600 nM. It also gave a GI50 (NCI-H522) of 600 nM, a GI50 (SF-268) of 600 nM and a GI50 (MKN-74) of 600 nM. The GI50 (OVCAR-8) was 600 nM, the GI50 (MKN-45) was 600 nM and the GI50 (LOX IMVI) was 600 nM. For the same molecule, the Ki [8] was 19 nM, the GI50 (RXF 631) was 600 nM and the GI50 (KM12) was 600 nM. It also gave a GI50 (A549) of 600 nM.

Work on `COC[C@@H](C[C@H]1O[C@@](O)([C@H](O)[C@@H]2C[C@H](OC)[C@@H](O)CCC/C=C(C)\C=C\C[C@@H](O[C@H]3O[C@@H](C)[C@H](OC)[C@@H](O)[C@@H]3O)[C@H](C)/C=C(C)/C=C(C)/C=C(\C)C(=O)O2)[C@H](C)[C@@H](O)[C@H]1C)O[C@H]1C[C@](C)(O)[C@@H](O[C@H]2C[C@@H](OC)[C@H](O)[C@@H](C)O2)[C@H](C)O1` yielded an IC50 [9] of 20 nM and an IC50 (MCF7 [10]) of 30 nM.

Work on `C/C=C(\C)[C@H](O)[C@H](C)/C=C(C)/C=C/C/C(C)=C/Cc1nc(OC)c(OC)c(OC2O[C@H](C)[C@H](O)[C@H](O)[C@@H]2O)c1C` (some centres not stated) yielded an IC50 (L1210) of 7.91 µg/mL (≈ 14.1 µM) and an IC50 (Colon 26) of 0.81 µg/mL (≈ 1.44 µM).

For `COC[C@@H](C[C@H]1O[C@@](O)([C@H](O)[C@@H]2C[C@H](OC)CCC/C=C(C)/C=C/[C@@H](O[C@@H]3O[C@@H](C)[C@H](OC)[C@@H](O)[C@@H]3O)[C@H](C)/C=C(C)/C=C(C)/C=C(\C)C(=O)O2)[C@H](C)[C@@H](O)[C@H]1C)O[C@H]1C[C@](C)(O)[C@@H](O[C@H]2C[C@@H](OC)[C@H](O)[C@@H](C)O2)[C@H](C)O1`, the GI50 (NCI-H292 [11]) was 7 nM.

`C/C=C(\C)[C@H](O)[C@H](C)/C=C(C)/C=C/C/C(C)=C/Cc1nc(OC)c(OC)c(OC2O[C@@H](C)[C@H](O)[C@@H](O)[C@H]2O)c1C` (some centres not stated) showed an IC50 (HeLa [12]) of 2.8 µg/mL (≈ 4.98 µM), an IC50 (K562) of 4.6 µg/mL (≈ 8.19 µM) and an IC50 (KB) of 3.8 µg/mL (≈ 6.76 µM).

Work on `CCCCCCCCCCCCn1cc(CO[C@@H]2OC[C@@H](O)[C@H](O)[C@H]2O)nn1` yielded a CC50 (Jurkat) of 26 µM.

In the case of `CCCCCCCCCCCCCCCC(=O)OCc1cn([C@@H]2O[C@H](CO)[C@@H](O)[C@H](O)[C@H]2O)nn1`, the IC50 (HeLa [13]) is reported as 121 µM.

Source: ChEMBL document CHEMBL5260828, “Amphiphilic glycoconjugates as potential anti-cancer chemotherapeutics” (Eur J Med Chem, 2018)
